Experimental data taken from PMC7098856 (British Journal of Clinical Pharmacology, 2020).
Values joined by “and” are separate entries in the source; they are usually repeats but may differ in a detail not shown here. Equal values may be shown once. Read-outs that look alike come from different tables or passages of the source.

Assays:
[1] = type: in vivo, patients with advanced solid tumours; details: for CL/F: geometric mean (CV%)
[2] = type: in vivo, patients with advanced solid tumours; details: for CL/F / variability of talazoparib Cmax: Arm B; for CL/F: geometric mean (CV%)
Safety and tolerability [3] = type: in vivo, patients with advanced solid tumours; details: both arms; talazoparib alone or together with itraconazole or rifampicin
Safety and tolerability [4] = type: in vivo, patients with advanced solid tumours; details: whole Arm B
[5] = Phase 1 dose escalation study; cited from earlier work
[6] = cited from earlier work
[7] = population PK, cited from earlier work
P‐glycoprotein (P‐gp) = details: in vitro; cited from earlier work
[8] = system: breast cancer resistance protein; details: in vitro; cited from earlier work
[9] = cited from earlier work; remark: listed apart in the source
[10] = cited from earlier work; remark: listed apart in the source
enzymes or transporters = details: at therapeutic exposures; cited from earlier work
[11] = coadministration of itraconazole
[12] = talazoparib + itraconazole vs talazoparib alone
[13] = talazoparib + rifampicin vs talazoparib alone
[14] = talazoparib + rifampicin vs talazoparib alone, listed as talazoparib
[15] = based on urinary excretion data, single 1 mg oral dose

Cn1ncnc1[C@H]1c2n[nH]c(=O)c3cc(F)cc(c23)N[C@@H]1c1ccc(F)cc1 [Talazoparib, talazoparib]
AUClast, adjusted geometric mean ([1]; Arm A talazoparib alone (reference), mixed effects model): 98,532.3 h pg/mL | CL/F ([1]; Arm A, single oral 0.5 mg talazoparib + itraconazole): 12 3.3 (36.0) L/h | Tmax ([1]; Arm A, single oral 0.5 mg talazoparib + itraconazole, median (range)): 15 1.0 (0.5–4.0) h | CL/F ([1]; Arm A, single oral 0.5 mg talazoparib alone): 18 4.6 (42.0) L/h | increase in talazoparib AUCinf relative to talazoparib alone [1, 11]: ~ 56% and 56% | increase in talazoparib Cmax relative to talazoparib alone [1, 11]: ~ 40% and 40% | AUC(0-inf) ([1]; human, plasma, oral, 0.5 mg): 110 ng·h/mL | Cmax ([1]; human, plasma, oral, 0.5 mg): 2.09 ng/mL | Cmax ([1]; human, plasma, po, 0.5 mg): 2.09 ng/mL | Vd/F ([1]; human, plasma, po, 0.5 mg): 645 L | half-life ([1]; human, plasma, po, 0.5 mg): 101 h | AUCinf geometric mean ratio (test/reference), % (90% CI) [1, 12]: 156.2 (137.6, 177.4) % | AUClast geometric mean ratio (test/reference), % (90% CI) [1, 12]: 150.7 (136.5, 166.4) % | Cmax geometric mean ratio (test/reference), % (90% CI) [1, 12]: 139.9 (113.3, 172.9) % | CL/F ([2]; single oral 1.0 mg talazoparib + rifampicin): 12 5.2 (36.0) L/h | CL/F ([2]; single oral 1.0 mg talazoparib alone): 17 4.8 (34.0) L/h | variability of talazoparib Cmax ([2]; talazoparib alone): 53% | variability of talazoparib Cmax ([2]; with rifampicin administration): 71% | increase in talazoparib Cmax relative to talazoparib alone ([2]; coadministration of rifampicin): approximately 37% | Cmax ([2]; human, plasma, oral, 1 mg): 6.01 ng/mL | Cmax ([2]; human, plasma, po, 1 mg): 6.01 ng/mL | Tmax ([2]; human, plasma, po, 1 mg): 1 h | Vd/F ([2]; human, plasma, po, 1 mg): 624 L | half-life ([2]; human, plasma, po, 1 mg): 92.1 h | AUCinf geometric mean ratio (test/reference), % (90% CI) [2, 13]: 102.0 (94.0, 110.7) % | AUClast geometric mean ratio (test/reference), % (90% CI) [2, 13]: 105.4 (98.0, 113.2) % | Cmax geometric mean ratio (test/reference), % (90% CI) [2, 13]: 136.6 (103.2, 180.9) % | AUCinf geometric mean ratio (test/reference), % (90% CI) [2, 14]: 102.0% | Cmax geometric mean ratio (test/reference), % (90% CI) [2, 14]: 136.6% | overall tolerability (Safety and tolerability [3]): generally well tolerated | patients who discontinued treatment due to AEs (Safety and tolerability [4]): 11.8% | patients who discontinued treatment due to study-drug related AE (Safety and tolerability [4]): 5.9% | maximum tolerated dose (MTD) [5]: 1 mg once daily (QD) | absolute bioavailability [6, 15]: at least 54.6% | fraction absorbed [6, 15]: at least 68.7% | hepatic metabolism [6]: minimal | major elimination pathway [6]: renal excretion of unchanged talazoparib | increase in relative bioavailability of talazoparib by potent P-gp inhibitors ([7]; data pooled from multiple clinical trials): 45% | increase in relative bioavailability of talazoparib by potent P-gp inhibitors ([7]; first-in-human, Phase 2 and 3 studies): 44.7% | substrate for P-gp (P‐glycoprotein (P‐gp)): substrate | substrate for breast cancer resistance protein [8]: substrate | patients who permanently discontinued treatment due to a haematological AE [9]: 1.4% | progression-free survival vs physician's choice of chemotherapy [9]: statistically significant and clinically meaningful improvement | patients with Grade 3–4 AEs (primarily haematological) ([9]; patients on talazoparib): 55% | effect of food on talazoparib AUCinf [10]: no effect | effect of food on talazoparib Cmax [10]: reduced | induction or inhibition of enzymes or transporters (enzymes or transporters): does not markedly induce or inhibit
